Measurements taken from ChEMBL document CHEMBL3045886, “Benzothiazole Schiff-bases as potential imaging agents for -amyloid plaques in Alzheimers disease” (Med Chem Res, 2013).
Activity calls are given as the source filed them. The rule behind the calls is not given here.

target: T1, Amyloid-beta precursor protein (Homo sapiens, UniProt P05067); test: Binding affinity to beta amyloid (unknown origin) isolated from alzheimer's patient brain homogenates at 50 uM after 20 min by fluorescence microscopic analysis relative to thioflavin S-treated control; assay type: tissue-based
T1 sequence (P05067 whole entry): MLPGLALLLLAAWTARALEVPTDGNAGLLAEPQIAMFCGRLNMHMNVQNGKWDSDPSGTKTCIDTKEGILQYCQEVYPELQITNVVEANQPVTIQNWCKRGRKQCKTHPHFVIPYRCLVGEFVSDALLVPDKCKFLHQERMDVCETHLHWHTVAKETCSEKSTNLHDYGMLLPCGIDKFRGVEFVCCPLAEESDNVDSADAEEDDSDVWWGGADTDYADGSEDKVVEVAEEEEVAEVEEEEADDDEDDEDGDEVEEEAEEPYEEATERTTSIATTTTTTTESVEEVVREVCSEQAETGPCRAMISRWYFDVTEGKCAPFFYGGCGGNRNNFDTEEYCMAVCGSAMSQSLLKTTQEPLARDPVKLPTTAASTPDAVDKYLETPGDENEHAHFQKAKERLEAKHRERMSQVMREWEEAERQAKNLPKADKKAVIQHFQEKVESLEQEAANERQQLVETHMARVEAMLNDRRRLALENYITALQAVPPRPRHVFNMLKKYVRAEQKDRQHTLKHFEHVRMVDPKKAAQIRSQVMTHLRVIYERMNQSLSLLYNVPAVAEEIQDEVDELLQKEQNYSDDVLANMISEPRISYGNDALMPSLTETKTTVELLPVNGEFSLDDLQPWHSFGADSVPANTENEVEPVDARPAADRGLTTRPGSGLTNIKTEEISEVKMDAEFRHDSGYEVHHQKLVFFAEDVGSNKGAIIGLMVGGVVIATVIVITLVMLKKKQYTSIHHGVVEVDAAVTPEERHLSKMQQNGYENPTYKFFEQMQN

Row | SMILES | Activity
1 | COc1ccc2nc(/N=C/c3ccc(N(C)C)cc3)sc2c1 | Active

target: T1, Amyloid-beta precursor protein; test: Displacement of [125I]IMPY from beta amyloid (unknown origin) isolated from alzheimer's patient brain homogenates after 2 hr by gamma counting analysis

Row | SMILES | Ki [µM]
2 | COc1ccc2nc(/N=C/c3ccc([N+](=O)[O-])cc3)sc2c1 | 0.515
3 | COc1ccc2nc(/N=C/c3ccc(O)cc3)sc2c1 | 0.0347
4 | COc1ccc2nc(/N=C/c3ccc(Br)cc3)sc2c1 | 0.106
5 | COc1ccc2nc(/N=C/c3ccc(I)cc3)sc2c1 | 0.103
6 | COc1ccc(/C=N/c2nc3ccc(OC)cc3s2)cc1 | 0.0108
7 | COc1ccc2nc(/N=C/c3ccc(N(C)C)cc3)sc2c1 | 0.00438
